Test results: patent publication US6613875B1, “Cyclic peptide tube” (The Scripps Research Institute, priority 1993, dated 2003)
Square brackets hold non-standard residues; d marks the D form.

Assay: Proton transport (collapse of pH gradient) in vesicles with entrapped 5(6)-carboxyfluorescein
Type: biochemical
Conditions: vesicles pH 6.5 inside, pH 5.5 outside
Text: The proton efflux is expressed in terms of the fractional change in the fluorescence intensity of vesicle entrapped 5(6)-carboxyfluorescein as a function of time (sampling time was at 0.3 seconds interval). Equal molar amounts of channel forming compounds were used in each experiment to allow direct comparisons of channel-mediated proton transport activity. The amount of added channel forming compounds in each experiment ranged from of 2 to 20 nmoles corresponding to approximately 150 channels per liposome for the lowest concentrations to 1100 channels per liposome for the highest amount of added compounds.
Formation of transmembrane channels was also inferred from its highly efficient proton transport activity. Vesicles were prepared having pH 6.5 inside and pH 5.5 in the outside bulk solution. The collapse of the imposed pH gradient in these vesicles, upon formation of the putative transmembrane channel structure, was studied by monitoring the fluorescence intensity of an entrapped pH-sensitive dye. (V.E. Carmichael et al, in J.Am. Chem. Soc. (1989), vol. 111, pages 767-769). […] Unilamellar vesicles were prepared by the reverse-phase evaporation using DPPC, OPPC, cholestrol in the ratio of 1:1:2 in a solution containing 5(6)-carboxyfluorescein (20 mM in phosphate/saline buffer: 137 mM NaCl, 2.6 mM KCl, 6.4 mM Na2HPO4, 1.4 mM KH2PO4, pH 6.5) according to the method of F. Szoka et al. in Proc. Natl. Acad. Sci. USA (1978), vol. 75, pages 4194-4198. […] Vesicles formed in this way are approximately 150 nanometer in diameter as determined by electron microscopy. […] To the cuvett, through an injector port, […] of the channel forming compounds in DMSO was added with continuous fluorescence monitoring at 520 nm (excitation at 470 nm). The observed data were then normalized for comparison into the fractional change in fluorescence ((I0−It)/(I0−I∞)) (V. E. Carmichael et al, in J.Am. Chem. Soc. (1989), vol. 111, pages 767-769)). […]

Substance: cyclo[-(Trp-D-Leu)3-Gln-D-Leu-] (cyclo(W[dL]W[dL]W[dL]Q[dL]); SMILES CC(C)C[C@H]1NC(=O)[C@H](CCC(N)=O)NC(=O)[C@@H](CC(C)C)NC(=O)[C@H](Cc2c[nH]c3ccccc23)NC(=O)[C@@H](CC(C)C)NC(=O)[C@H](Cc2c[nH]c3ccccc23)NC(=O)[C@@H](CC(C)C)NC(=O)[C@H](Cc2c[nH]c3ccccc23)NC1=O) [eight residue ion channel forming cyclic peptide, approximately 7.5 Å pore]
- collapse of the imposed pH gradient upon addition of peptide: rapid collapse of the pH gradient
